In PubChem BioAssay (NCI):
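1) Cells in 96-well plates. 2) Compound, 48 h, 5 concentrations. 3) Linear interpolation between surrounding doses. 4) Unreached endpoint = highest concentration. GI50 is the concentration that inhibits growth by half. TGI marks complete inhibition of growth.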

Legend:
Assay in all cases: DTP human tumour cell line panel, 48 h
CAKI-1 renal = system: CAKI-1 renal
ACHN renal = system: ACHN renal
EKVX NSCLC = system: EKVX NSCLC
UACC-62 melanoma = system: UACC-62 melanoma
SNB-75 CNS = system: SNB-75 CNS
RXF 393 renal = system: RXF 393 renal
SN12C renal = system: SN12C renal
SK-MEL-28 melanoma = system: SK-MEL-28 melanoma
HOP-92 NSCLC = system: HOP-92 NSCLC
SK-MEL-5 melanoma = system: SK-MEL-5 melanoma
M14 melanoma = system: M14 melanoma

| SMILES | TGI (CAKI-1 renal) [µM] | TGI (ACHN renal) [µM] | TGI (EKVX NSCLC) [µM] | TGI (UACC-62 melanoma) [µM] | TGI (SNB-75 CNS) [µM] | TGI (RXF 393 renal) [µM] | TGI (SN12C renal) [µM] | TGI (SK-MEL-28 melanoma) [µM] | TGI (HOP-92 NSCLC) [µM] | TGI (SK-MEL-5 melanoma) [µM] | TGI (M14 melanoma) [µM] | GI50 (EKVX NSCLC) [µM] | GI50 (RXF 393 renal) [µM] | GI50 (SK-MEL-28 melanoma) [µM] | GI50 (HOP-92 NSCLC) [µM] | GI50 (SK-MEL-5 melanoma) [µM] |
| --- | --- | --- | --- | --- | --- | --- | --- | --- | --- | --- | --- | --- | --- | --- | --- | --- |
| O=C(/C=C/c1ccccc1)Nc1ccccc1SCCCCl | > 100 | > 100 | > 100 | > 72.7 | > 87.1 | 84.2 | 98.5 | > 100 | > 30.9 | > 91.4 | > 100 |  |  |  |  |  |
| COc1ccccc1C(O)[C@@H]1C[C@@H]2[C@H]3CC[C@@](C)([C@@H]2O1)C3(C)C (some centres undefined) | 56.4 | 35.4 | > 100 | 32.8 | 37.7 | 32.6 | 30.3 | 37.3 | 30.7 | 31.6 | 40.1 |  |  |  |  |  |
| CSc1nc2c(c(=O)n1C)N=C(c1ccc([N+](=O)[O-])cc1)CC(c1ccccc1)N2 (centres undefined) | > 100 | > 100 | > 100 | > 100 | > 100 | > 100 | > 100 | > 100 | > 100 | > 100 | > 100 |  |  |  |  |  |
| CCOC(=O)/C=C(/C(=O)OCC)n1ccc(=O)n(Cc2cnnn2COCCOC(C)=O)c1=O | 11.4 | 22.1 | 33.8 | 32.8 | > 100 | 39 | 47.9 | 32.2 | 6.81 | 38.2 | 38.8 |  |  |  |  |  |
| O=C1O[C@H]2[C@H](OC(=O)c3cc(O)c(O)c(O)c3)[C@@H](OC(=O)c3cc(O)c(O)c4c3[C@@H]3C1=CC(=O)C(O)(O)C3(O)O4)[C@H](OC(=O)c1cc(O)c(O)c(O)c1)O[C@@H]2COC(=O)c1cc(O)c(O)c(O)c1 (some centres undefined) | > 100 | > 100 | > 100 | > 100 | > 100 | > 100 | > 100 | > 100 | > 100 | > 100 | > 100 |  |  |  |  |  |
| CCN(CC)CCN(C)c1ccc(CO)c2c1C(=O)c1ccccc1S2=O (centres undefined) | 26.2 | 23.8 | 13.6 | 17.6 | 31.5 | 36 | 28.9 | 10.2 | 30.5 | 6.52 | 4.11 |  |  |  |  |  |
| CC1=C(O)c2ccccc2C(=O)C1=O | > 100 | > 100 | > 100 | > 100 | > 100 | > 100 | > 100 | > 100 | > 100 | > 65.1 | > 100 |  |  |  |  |  |
| O=C(CSCC(=O)N/N=C\c1cccc([N+](=O)[O-])c1)N/N=C\c1cccc([N+](=O)[O-])c1 | 64.4 | 33.7 | > 100 | > 100 | 65.6 | > 100 | > 100 | > 100 | > 100 | > 100 | > 100 |  |  |  |  |  |
| COc1ccc(N=NC(=O)NC(CC(C)C)C(=O)NCC(=O)O)cc1 (centres undefined) | > 100 | > 100 | > 100 | > 100 | > 100 | > 100 | > 100 | > 100 | > 100 | > 56.2 | > 100 |  |  |  |  |  |
| O=[S@]1c2ccc3ccccc3c2N[C@@H]2[C@H]1[C@H]1C=C[C@@H]2C1 | > 100 | > 100 | > 100 | > 100 | 73.4 | 95.1 | > 100 | > 100 | > 100 | > 100 | > 100 |  |  |  |  |  |
| O=C1CCc2ccc(O)c(c2)Oc2ccc(cc2)C(Sc2ccccc2)CCO1 (centres undefined) | 41.1 | 32.1 | 28.5 | 32.5 | 28.4 | 35.4 | 29.7 | 31.6 | 22.2 | 24.8 | 32.1 |  |  |  |  |  |
| COc1ccccc1/C=C/C1=NN(c2cccc(S(=O)(=O)O)c2)C2(C1)C(Cl)C(=O)N2c1nc2ccccc2s1 (centres undefined) | > 74.3 | > 100 | > 100 | > 100 | > 96.3 | > 87 | > 100 | > 100 | > 95 | > 100 | > 100 |  |  |  |  |  |
| COc1cc2c(c(OC)c1OC)-c1ccc(SC)c(=O)cc1[C@@H](O)CC2 | > 100 | > 100 |  | > 100 | > 100 | > 100 | > 100 | > 100 | > 100 |  |  | > 100 | > 100 | > 100 | > 100 | 0.000311 |
| CCCSc1ccc2[nH]c(N3C(=O)/C(=C/c4ccc(SC)cc4)N=C3c3ccccc3)cc2c1 | > 50 | > 50 | > 50 | > 50 | > 50 | > 46.6 | > 50 | > 50 | > 50 | > 36.3 | > 50 |  |  |  |  |  |
| CC(Nc1ccc(Cl)c(Cl)c1)c1ccncc1 (centres undefined) | 97.8 | > 100 | > 100 |  | 97.7 | 54.3 | > 100 | > 100 | 54.8 | 30.3 | 68.2 |  |  |  |  |  |
| Cc1ccc2nc(C(C)C)c(=O)[nH]c2c1 | > 100 | > 100 | > 100 | > 100 | > 100 | > 100 | > 100 | > 100 | > 100 | > 100 | > 100 |  |  |  |  |  |
| C=CCOC(=O)C1=C(C)NC2=N[C@H](CCCCCCCCC)C[C@@H]3CCC1N23 (some centres undefined) | > 100 | 44.4 | 53.1 | 35.6 | 83.5 | 36 | 35.7 | 53.6 | 38 | 34.4 | 37.6 |  |  |  |  |  |
| C=C1C(=O)O[C@H]2C1C[C@@H](OC(C)=O)/C(C)=C/CC[C@@]1(C)O[C@H]21 (some centres undefined) | 22.1 | 15.2 | 35.2 | 15.6 | 62.7 | 20.2 | 29.2 | 24.9 | 32.4 | 18.4 | 16.1 |  |  |  |  |  |
| CCCCCc1c(CCCC)c(=O)[nH]c2nc(NC(=O)CCCC)ccc12 | > 100 | > 100 | > 100 |  | > 100 | > 100 | > 100 | > 100 | > 100 | > 100 | > 100 |  |  |  |  |  |
